# Measured values taken from US20230250253A1, “PLASTIC POLYMER BIOCONVERSION PROCESS” (GEORGIA STATE UNIVERSITY RESEARCH FOUNDATION, INC., priority 2020, published 2023).
# Where two headings read alike, the source gives them in different places.
# Experiments:
# [1] = Precipitation of polyester-derived medium as a function of pH; assay type: physicochemical; details: PTT1 medium, pH lowered
# Method: Method: One g of PTT fiber is added to 4 ml of industrial grade ethanol (100 percent ethanol), 1 ml DMSO+0.41 g NaOH (18 percent w/v). The mixture is refluxed with heating […] for 45 −60 min; the reflux allows for heating of the mixture without the ethanol evaporating. The heating process to depolymerize the fibers is as follows: in the first 5 min, no stirring, then stir for 10 min while the fibers crystallize into a white substance. Continue the heating/reflux for the remainder of the prescribed time, then let the system cool. The product will be a bluish, slurry with white crystals; it may also contain residual carpet materials such as polypropylene, calcium carbonate and adhesive. The bluish liquid is the alcohol fraction, containing the alcohol soluble components derived from PTT (propanol, propanal). The white crystals are the TPA. The pH during reflux is 12 to 13 and the pH of slurry is 12-12.5. The slurry can be centrifuged to separate the alcohol and TPA fractions, or the slurry can be added to an aqueous solution adjusted to pH=11 or 12 using NaOH. This latter step is used to make PTT1 medium. In PTT1 medium, the contents as described are added to 1 liter of pH adjusted water, while mixing; the added compounds will not precipitate. The pH of the resulting solution is adjusted to 9.5, typically using HCl and NaOH. 300 mg/l yeast extract is added as a N source. […]
# [2] = test system: Yarrowia lipolytica strain 78-003; assay: FA profile on lipid- versus carbohydrate-containing media; assay type: cell-based; details: for Number of different FAs produced: cells grown 120 h
# Description: The hexadecane medium used for FA profile experiments consisted of: 5% v/v hexadecane, 5 g L^−1 yeast nitrogen broth (w/amino acids), 0.5 g L^−1 KH2PO4, and 0.25 g L^−1 Mg2SO4.
# Starch medium used for FA profile experiments consisted of: 50 g L^−1 hydrolyzed starch, 2 g L^−1 yeast nitrogen broth (w/amino acids), 0.5 g L^−1 KH2PO4, and 0.25 g L^−1 Mg2SO4. The medium consisted of: 5.4 g L^−1 Tween- 80®, 1.25 g L^−1 (NH4)2SO4, 2.5 g L^−1 KH2PO4, and 0.830 g L^−1 MgSO4. Glucose (5%) medium used for FA profile experiments consisted of: 50 g L^−1 glucose and 3 g L^−1 yeast extract.
# Intracellular Lipid Quantification: A modified Bligh and Dyer extraction (Bligh and Dyer 1959) was used to extract lipids from yeast samples. Post-fermentation OP4 culture was withdrawn and aliquoted into pre-weighed 50 ml conical tubes, and tubes were centrifuged, and pellets washed twice with 0.9% NaCl. Pellets were lyophilized overnight using a BT3.3 EL Lyophilizer Tabletop (SP Scientific, USA), weighed, and suspended in a 2:1 v/v chloroform: methanol mixture (5 ml per 50 mg cell dry weight) and sonicated using a Sonic Dismembrator (Fisher Scientific, USA) at 20 kHz, 20% amplitude with pulsing (40 s on, 20 s off for a total working time of 20 min). The chloroform layer was taken and dried under a nitrogen stream. Dried lipids were weighed and derivatized for GC/MS analysis via base-catalyzed esterification with 2.5 ml sodium methoxide (0.1 M) (Milanesio et al. 2013). The reaction was quenched using 200 μL sulfuric acid (>95%), and 2.5 ml hexane was added to each sample, which was then vortexed and centrifuged (5 min at 5000 rpm). 1.5 ml from the top hexane layer was withdrawn for GC/MS analysis.
# GC/MS Analysis of Lipid Profile: The FA profile was characterized with an Agilent 7890A gas chromatograph (GC) attached to a 5977A mass spectrometer detector and equipped with an Agilent J&W HP-5 ms UI capillary column ([…]×0.25 mm×[…]). 1 μL samples were injected via an Agilent 7693 Automatic Liquid Sampler in splitless mode with an inlet temperature of 275° C., using helium as the carrier gas at a flow rate of 1 ml min·1. GC oven temperature was held at 60° C. for 1 min, and ramped to 100° C. (rate: 25° C. min·1; hold 1 min). The oven temperature was then increased to 200° C. (rate: 25° C. min^−1; hold 1 min). The oven temperature is then increased to 220° C. (rate: […]; hold 7 min) and then increased to an ending temperature of 300° C. (rate: 25° C. min·1; hold 2 min). A C8-C24 FAME analytical standard was used during sample analyses as an external standard (Sigma Aldrich, USA).
# [3] = test system: Yarrowia lipolytica ATCC strain 46482; assay: Intracellular lipid quantification and GC/MS fatty acid profile, OP5 / PCOP5 medium; assay type: cell-based; details: growth in OP5 medium
# Method: Fermentation Optimization: For fermentation optimization experiments, pH, inoculum density, osmolarity, or carbon-nitrogen ratio were altered. For pH experiments, OP5 medium pH was adjusted to 4.0, 5.0, or 6.0 using 2.0 M H2SO4 or 4.0 M NaOH. A Corning 320 pH meter (Corning, USA) was used to measure pH. For starting inoculum density experiments, OP5 medium was inoculated at an inoculum density of either 1.0, 3.0, or 6.0. Aliquots of 1 ml were retrieved from Y. lipolytica overnight culture and inoculum density was measured via absorbance at 600 nm. Based on absorbance readings, a volume of cells corresponding to the desired inoculum density was retrieved from the overnight culture and centrifuged at 4,000 rpm. Pelleted cells were washed twice with 50 mM PBS solution and used to inoculate OP5 medium. […] After the selected parameters were altered, shake flask fermentations were carried out for 120 hours, after which cells were processed and biomass and lipid product formation were analyzed as described below. […]
# Component media experiments were carried out in 500 ml Erlenmeyer flasks containing 50 ml medium, and Y. lipolytica was inoculated at an inoculum density of 1.0. […] The supernatant was decanted and cells washed twice with 50 mM PBS before being lyophilized, weighed as described above, and lipids extracted and quantified as described in the following section. […]
# Y. lipolytica = details: cited from earlier work
# [4] = Y. lipolytica growing on the medium, this work
# [5] = 250 g L^−1 substrate, strain with Poxl-6 and TGL4 inhibited
smiles,measurement,setting,value
"O=C(O)c1ccc(C(=O)O)cc1 [TPA, terephthalic acid]",pH at which it precipitates from the medium,[1],around 8.5
"O=C[C@H](O)[C@@H](O)[C@H](O)[C@H](O)CO [Glucose, glucose]",C 16:0 in C 16 and C 18 FA profile,[2]; [4],16 percentages
same,C 16:1 in C 16 and C 18 FA profile,[2]; [4],21 percentages
same,C 18:0 in C 16 and C 18 FA profile,[2]; [4],7 percentages
same,C 18:1 in C 16 and C 18 FA profile,[2]; [4],56 percentages
same,Number of different FAs produced,[2],10
"CCCCCCCCCCCCCCCC [Hexadecane, hexadecane]",C 16:0 in C 16 and C 18 FA profile,[2]; [4],46 percentages
same,C 16:1 in C 16 and C 18 FA profile,[2]; [4],15 percentages
same,C 18:0 in C 16 and C 18 FA profile,[2]; [4],10 percentages
same,C 18:1 in C 16 and C 18 FA profile,[2]; [4],25 percentages
same,C 18:2 in C 16 and C 18 FA profile,[2]; [4],4 percentages
same,Number of different FAs produced,[2],5
"CCCCCCCC/C=C\CCCCCCCC(=O)OCCOCC(OCCO)C1OCC(OCCO)C1OCCO (stereo not drawn) [Tween® 80, polysorbate 80]",Fatty acids produced attributable to carbon from the component,[3],0.4 g/L
"OCC(O)CO [Glycerol, glycerol]",Lipid content,Y. lipolytica; [5],31 % CDW
same,Lipid yield,Y. lipolytica; [5],15.5 g/L
same,C 16:0 in C 16 and C 18 FA profile,Y. lipolytica; source Aggelis 2002,15 percentages
same,C 16:1 in C 16 and C 18 FA profile,Y. lipolytica; source Aggelis 2002,2 percentages
same,C 18:0 in C 16 and C 18 FA profile,Y. lipolytica; source Aggelis 2002,11 percentages
same,C 18:1 in C 16 and C 18 FA profile,Y. lipolytica; source Aggelis 2002,47 percentages
same,C 18:2 in C 16 and C 18 FA profile,Y. lipolytica; source Aggelis 2002,21 percentages
same,C 16:0 in C 16 and C 18 FA profile,Y. lipolytica; source André et al. 2009,12 percentages
same,C 16:1 in C 16 and C 18 FA profile,Y. lipolytica; source André et al. 2009,11 percentages
same,C 18:0 in C 16 and C 18 FA profile,Y. lipolytica; source André et al. 2009,9 percentages
same,C 18:1 in C 16 and C 18 FA profile,Y. lipolytica; source André et al. 2009,57 percentages
same,C 18:2 in C 16 and C 18 FA profile,Y. lipolytica; source André et al. 2009,11 percentages
same,C 16:0 in C 16 and C 18 FA profile,Y. lipolytica; source Makri et al. 2010,13 percentages
same,C 16:1 in C 16 and C 18 FA profile,Y. lipolytica; source Makri et al. 2010,17 percentages
same,C 18:0 in C 16 and C 18 FA profile,Y. lipolytica; source Makri et al. 2010,6 percentages
same,C 18:1 in C 16 and C 18 FA profile,Y. lipolytica; source Makri et al. 2010,55 percentages
same,C 18:2 in C 16 and C 18 FA profile,Y. lipolytica; source Makri et al. 2010,7 percentages
